# Measurements as given in ChEMBL document CHEMBL3621169, “Synthesis of tetrazole compounds as a novel type of potential antimicrobial agents and their synergistic effects with clinical drugs and interactions with calf thymus DNA” (Medchemcomm, 2015).
# The source made the active and inactive calls. No cut-off for these calls is given here.
# Columns and labels:
# Staphylococcus aureus [1] = experiment: Antibacterial activity against methicillin-resistant Staphylococcus aureus N315 by micro dilution checkerboard method in the presence of norfloxacin; format: functional
# Staphylococcus aureus [2] = experiment: Antibacterial activity against Staphylococcus aureus ATCC 25923 by micro dilution checkerboard method in the presence of chloromycin; format: functional
# Bacillus sp. [3] = experiment: Antibacterial activity against Bacillus proteus ATCC 13315 by micro dilution checkerboard method in the presence of chloromycin; format: functional
# Bacillus spizizenii [4] = experiment: Antibacterial activity against Bacillus subtilis ATCC 6633 by micro dilution checkerboard method in the presence of chloromycin; format: functional
# Candida [5] = experiment: Antifungal activity against Candida mycoderma after 24 hrs by micro broth dilution method; format: functional
# Pseudomonas aeruginosa [6] = experiment: Antibacterial activity against Pseudomonas aeruginosa ATCC 27853 after 24 hrs by micro broth dilution method; format: functional; conditions: ATCC 27853, 24 h
# Bacillus spizizenii [7] = experiment: Antibacterial activity against Bacillus subtilis ATCC 6633 after 24 hrs by micro broth dilution method; format: functional; conditions: ATCC 6633, 24 h
# Pseudomonas aeruginosa [8] = experiment: Antibacterial activity against Pseudomonas aeruginosa ATCC 27853 by micro dilution checkerboard method in the presence of chloromycin; format: functional
# Candida albicans [9] = experiment: Antifungal activity against Candida albicans ATCC 90029 by micro dilution checkerboard method in the presence of fluconazole; format: functional
# Bacillus spizizenii [10] = experiment: Antibacterial activity against Bacillus subtilis ATCC 6633 by micro dilution checkerboard method in the presence of norfloxacin; format: functional
# Micrococcus luteus [11] = experiment: Antibacterial activity against Micrococcus luteus ATCC 4698 by micro dilution checkerboard method in the presence of norfloxacin; format: functional
# Shigella dysenteriae [12] = experiment: Antibacterial activity against Shigella dysenteriae ATCC 51252 by micro dilution checkerboard method in the presence of chloromycin; format: functional
# [13] = n-octanol/water partition coefficient, log P of the compound at 25 deg C after 24 hrs by saturation shake flask based UV spectroscopy; format: physicochemical
# Shigella dysenteriae [14] = experiment: Antibacterial activity against Shigella dysenteriae ATCC 51252 by micro dilution checkerboard method in the presence of norfloxacin; format: functional
# Staphylococcus aureus [15] = experiment: Antibacterial activity against methicillin-resistant Staphylococcus aureus N315 after 24 hrs by micro broth dilution method; format: functional; conditions: N315, 24 h
# Staphylococcus aureus [16] = experiment: Antibacterial activity against Staphylococcus aureus ATCC 25923 after 24 hrs by micro broth dilution method; format: functional; conditions: ATCC 25923, 24 h
# Pseudomonas aeruginosa [17] = experiment: Antibacterial activity against Pseudomonas aeruginosa ATCC 27853 by micro dilution checkerboard method in the presence of norfloxacin; format: functional
# Escherichia coli [18] = experiment: Antibacterial activity against Escherichia coli DH52 after 24 hrs by micro broth dilution method; format: functional; conditions: DH52, 24 h
# Staphylococcus aureus [19] = experiment: Antibacterial activity against Staphylococcus aureus ATCC 25923 by micro dilution checkerboard method in the presence of norfloxacin; format: functional
# Bacillus sp. [20] = experiment: Antibacterial activity against Bacillus proteus ATCC 13315 by micro dilution checkerboard method in the presence of norfloxacin; format: functional
# Aspergillus flavus [21] = experiment: Antifungal activity against Aspergillus flavus after 24 hrs by micro broth dilution method; format: functional
# Calf thymus DNA [22] = experiment: Binding affinity to calf thymus DNA by UV-visible spectroscopy; format: nucleic-acid assay; conditions: Bos taurus
# Escherichia coli [23] = experiment: Antibacterial activity against Escherichia coli DH52 by micro dilution checkerboard method in the presence of chloromycin; format: functional
# Shigella dysenteriae [24] = experiment: Antibacterial activity against Shigella dysenteriae ATCC 51252 after 24 hrs by micro broth dilution method; format: functional; conditions: ATCC 51252, 24 h
# Cyberlindnera jadinii [25] = experiment: Antifungal activity against Candida utilis ATCC 9950 after 24 hrs by micro broth dilution method; format: functional; conditions: Williopsis jadinii, ATCC 9950, 24 h
# Bacillus sp. [26] = experiment: Antibacterial activity against Bacillus proteus ATCC 13315 after 24 hrs by micro broth dilution method; format: functional; conditions: Bacillus sp. (in: firmicutes), ATCC 13315, 24 h
# Cyberlindnera jadinii [27] = experiment: Antifungal activity against Candida utilis ATCC 9950 by micro dilution checkerboard method in the presence of fluconazole; format: functional
# Micrococcus luteus [28] = experiment: Antibacterial activity against Micrococcus luteus ATCC 4698 after 24 hrs by micro broth dilution method; format: functional; conditions: ATCC 4698, 24 h
# Aspergillus flavus [29] = experiment: Antifungal activity against Aspergillus flavus by micro dilution checkerboard method in the presence of fluconazole; format: functional
# Micrococcus luteus [30] = experiment: Antibacterial activity against Micrococcus luteus ATCC 4698 by micro dilution checkerboard method in the presence of chloromycin; format: functional
# Calf thymus DNA [31] = experiment: Competitive binding affinity to calf thymus DNA by UV-visible spectroscopy in presence of neutral red; format: nucleic-acid assay; conditions: Bos taurus
# Staphylococcus aureus [32] = experiment: Antibacterial activity against methicillin-resistant Staphylococcus aureus N315 by micro dilution checkerboard method in the presence of chloromycin; format: functional
# Candida albicans [33] = experiment: Antifungal activity against Candida albicans ATCC 90029 after 24 hrs by micro broth dilution method; format: functional; conditions: ATCC 90029, 24 h
# [34] = Ionization constant, pKa of the compound by UV spectroscopy; format: physicochemical
# Escherichia coli [35] = experiment: Antibacterial activity against Escherichia coli DH52 by micro dilution checkerboard method in the presence of norfloxacin; format: functional
# Candida [36] = experiment: Antifungal activity against Candida mycoderma by micro dilution checkerboard method in the presence of fluconazole; format: functional
# [37] = Staphylococcus aureus, ATCC 25923
# [38] = Bacillus sp. (in: firmicutes), ATCC 13315
# [39] = Pseudomonas aeruginosa, ATCC 27853
structure (smiles),measurement,setting,value
Clc1ccccc1CN(Cc1nnn[nH]1)c1ccccc1,fractional inhibitory concentration index (FICI),Staphylococcus aureus [1],0.75
same,MIC,"Staphylococcus aureus [1]; Staphylococcus aureus, N315",8 µg/mL
same,fractional inhibitory concentration index (FICI),Staphylococcus aureus [2],0.75
same,MIC,Staphylococcus aureus [2]; [37],16 µg/mL
same,fractional inhibitory concentration index (FICI),Bacillus sp. [3],0.75
same,MIC,Bacillus sp. [3]; [38],32 µg/mL
same,fractional inhibitory concentration index (FICI),Bacillus spizizenii [4],0.375
same,MIC,"Bacillus spizizenii [4]; Bacillus spizizenii, ATCC 6633",16 µg/mL
same,MIC,Candida [5],4 µg/mL
same,MIC,Pseudomonas aeruginosa [6],16 µg/mL
same,MIC,Bacillus spizizenii [7],16 µg/mL
same,fractional inhibitory concentration index (FICI),Pseudomonas aeruginosa [8],0.5
same,MIC,Pseudomonas aeruginosa [8]; [39],16 µg/mL
same,fractional inhibitory concentration index (FICI),Candida albicans [9],0.75
same,MIC,"Candida albicans [9]; Candida albicans, ATCC 90029",2 µg/mL
same,fractional inhibitory concentration index (FICI),Bacillus spizizenii [10],0.625
same,MIC,"Bacillus spizizenii [10]; Bacillus spizizenii, ATCC 6633",8 µg/mL
same,fractional inhibitory concentration index (FICI),Micrococcus luteus [11],0.75
same,MIC,"Micrococcus luteus [11]; Micrococcus luteus, ATCC 4698",8 µg/mL
same,fractional inhibitory concentration index (FICI),Shigella dysenteriae [12],0.5
same,MIC,"Shigella dysenteriae [12]; Shigella dysenteriae, ATCC 51252",8 µg/mL
same,logP at 24 h,[13],1.09
same,MIC,Shigella dysenteriae [14],4 µg/mL
same,MIC,Staphylococcus aureus [15],32 µg/mL
same,MIC,Staphylococcus aureus [16],32 µg/mL
same,fractional inhibitory concentration index (FICI),Pseudomonas aeruginosa [17],0.75
same,MIC,Pseudomonas aeruginosa [17]; [39],16 µg/mL
same,MIC,Escherichia coli [18],16 µg/mL
same,fractional inhibitory concentration index (FICI),Staphylococcus aureus [19],0.5
same,MIC,Staphylococcus aureus [19]; [37],16 µg/mL
same,fractional inhibitory concentration index (FICI),Bacillus sp. [20],0.5
same,MIC,Bacillus sp. [20]; [38],16 µg/mL
same,MIC,Aspergillus flavus [21],8 µg/mL
same,Activity,Calf thymus DNA [22],Dose-dependent effect
same,K,Calf thymus DNA [22],4.16 ×10⁴ L/mol
same,fractional inhibitory concentration index (FICI),Escherichia coli [23],0.75
same,MIC,"Escherichia coli [23]; Escherichia coli, DH52",16 µg/mL
same,MIC,Shigella dysenteriae [24],32 µg/mL
same,MIC,Cyberlindnera jadinii [25],4 µg/mL
same,MIC,Bacillus sp. [26],16 µg/mL
same,fractional inhibitory concentration index (FICI),Cyberlindnera jadinii [27],0.5
same,MIC,"Cyberlindnera jadinii [27]; Williopsis jadinii, ATCC 9950",4 µg/mL
same,MIC,Micrococcus luteus [28],32 µg/mL
same,fractional inhibitory concentration index (FICI),Aspergillus flavus [29],0.5
same,MIC,Aspergillus flavus [29]; Aspergillus flavus,4 µg/mL
same,fractional inhibitory concentration index (FICI),Micrococcus luteus [30],0.5
same,MIC,"Micrococcus luteus [30]; Micrococcus luteus, ATCC 4698",8 µg/mL
same,Activity,Calf thymus DNA [31],Active
same,fractional inhibitory concentration index (FICI),Staphylococcus aureus [32],0.5
same,MIC,"Staphylococcus aureus [32]; Staphylococcus aureus, N315",8 µg/mL
same,MIC,Candida albicans [33],8 µg/mL
same,pKa,[34],4.34
same,fractional inhibitory concentration index (FICI),Escherichia coli [35],0.625
same,MIC,"Escherichia coli [35]; Escherichia coli, DH52",8 µg/mL
same,fractional inhibitory concentration index (FICI),Candida [36],0.5
same,MIC,Candida [36]; Candida,2 µg/mL
